{
  "source": "patent US20200339625A1",
  "about": "“NOVEL RADIOMETAL-BINDING COMPOUNDS FOR DIAGNOSIS OR TREATMENT OF PROSTATE SPECIFIC MEMBRANE ANTIGEN-EXPRESSING CANCER” (PROVINCIAL HEALTH SERVICES AUTHORITY, priority 2017, published 2020)",
  "key": {"[1]": {"system": "mice bearing LNCaP tumor xenografts", "experiment": "PET/CT imaging of 68Ga-labeled compounds", "assay_type": "in vivo", "procedure,_shortened": "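Male NOD SCID IL2Rγ KO mice bore subcutaneous LNCaP xenografts (1×10^7 cells, tumours 5-8 mm) and received 6-8 MBq tracer via tail vein under 2% isoflurane. At 50 min p.i., a 10-min CT and a 10-min static PET were acquired. For the 3 h time point, scanning began at 170 min p.i. with a 15-min static PET.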"}, "[2]": {"system": "mice bearing PSMA-expressing LNCAP cancer xenografts", "experiment": "Biodistribution of 68Ga-labeled compounds", "assay_type": "in vivo", "procedure,_shortened": "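NOD-SCID IL2RγKO male mice carried subcutaneous LNCaP xenografts grown to 5-8 mm over 5-6 weeks. Organs and blood were collected at 1 or 3 h after injection of the radiotracer and gamma-counted. Uptake was normalized to injected dose via a standard curve and expressed as %ID/g.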"}},
  "data": [
    {"molecule": "CCCCCCC(NC(=O)C1CCC(CNC(=O)CN2CCN(CC(=O)[O-])CCN(CC(=O)[O-])CCN(CC(=O)[O-])CC2)CC1)C(=O)NCCCCC(NC(=O)NC(CCC(=O)O)C(=O)O)C(=O)O.[68Ga+3]", "note": "(centres unmarked) [^68Ga-HTK03026]", "values": [
      {"measurement": "excretion pathway", "setting": "[1]; PET/CT images", "result": "excreted mainly via the renal pathway"},
      {"measurement": "tumor uptake (qualitative comparison)", "setting": "[1]; PET/CT images, compounds of FIG. 13", "result": "comparable"},
      {"measurement": "Adrenal glands uptake", "setting": "[2]; 1 h post-injection", "result": "1.84 ± 0.95", "unit": "% ID/g"},
      {"measurement": "Blood uptake", "setting": "[2]; 1 h post-injection", "result": "0.70 ± 0.19", "unit": "% ID/g"},
      {"measurement": "Bone uptake", "setting": "[2]; 1 h post-injection", "result": "0.54 ± 0.20", "unit": "% ID/g"},
      {"measurement": "Brain uptake", "setting": "[2]; 1 h post-injection", "result": "0.06 ± 0.02", "unit": "% ID/g"},
      {"measurement": "Fat uptake", "setting": "[2]; 1 h post-injection", "result": "0.45 ± 0.11", "unit": "% ID/g"},
      {"measurement": "Heart uptake", "setting": "[2]; 1 h post-injection", "result": "0.30 ± 0.06", "unit": "% ID/g"},
      {"measurement": "Intestine uptake", "setting": "[2]; 1 h post-injection", "result": "0.29 ± 0.06", "unit": "% ID/g"},
      {"measurement": "Kidneys uptake", "setting": "[2]; 1 h post-injection", "result": "68.5 ± 28.2", "unit": "% ID/g"},
      {"measurement": "Lacrimal uptake", "setting": "[2]; 1 h post-injection", "result": "1.33 ± 0.90", "unit": "% ID/g"},
      {"measurement": "Liver uptake", "setting": "[2]; 1 h post-injection", "result": "0.24 ± 0.06", "unit": "% ID/g"},
      {"measurement": "Lungs uptake", "setting": "[2]; 1 h post-injection", "result": "0.82 ± 0.26", "unit": "% ID/g"},
      {"measurement": "Muscle uptake", "setting": "[2]; 1 h post-injection", "result": "0.28 ± 0.13", "unit": "% ID/g"},
      {"measurement": "Pancreas uptake", "setting": "[2]; 1 h post-injection", "result": "0.71 ± 1.04", "unit": "% ID/g"},
      {"measurement": "Salivary uptake", "setting": "[2]; 1 h post-injection", "result": "0.83 ± 0.22", "unit": "% ID/g"},
      {"measurement": "Seminal uptake", "setting": "[2]; 1 h post-injection", "result": "0.43 ± 0.31", "unit": "% ID/g"},
      {"measurement": "Spleen uptake", "setting": "[2]; 1 h post-injection", "result": "1.34 ± 0.54", "unit": "% ID/g"},
      {"measurement": "Stomach uptake", "setting": "[2]; 1 h post-injection", "result": "0.10 ± 0.03", "unit": "% ID/g"},
      {"measurement": "Tail uptake", "setting": "[2]; 1 h post-injection", "result": "0.90 ± 0.56", "unit": "% ID/g"},
      {"measurement": "Testes uptake", "setting": "[2]; 1 h post-injection", "result": "0.35 ± 0.22", "unit": "% ID/g"},
      {"measurement": "Thyroid uptake", "setting": "[2]; 1 h post-injection", "result": "0.35 ± 0.08", "unit": "% ID/g"},
      {"measurement": "Tumor uptake", "setting": "[2]; 1 h post-injection", "result": "12.5 ± 2.90", "unit": "% ID/g"},
      {"measurement": "Tumor:Blood ratio", "setting": "[2]; 1 h post-injection", "result": "18.6 ± 5.54"},
      {"measurement": "Tumor:Muscle ratio", "setting": "[2]; 1 h post-injection", "result": "52.8 ± 24.9"},
      {"measurement": "Tumor:kidney ratio", "setting": "[2]; 1 h post-injection", "result": "0.22 ± 0.15"},
      {"measurement": "Urine uptake", "setting": "[2]; 1 h post-injection", "result": "575 ± 245", "unit": "% ID/g"}
    ]},
    {"molecule": "COc1ccc(CCCC(=O)NCC(=O)N[C@@H](CCCCNC(=O)CN2CCN(CC(=O)[O-])CCN(CC(=O)[O-])CCN(CC(=O)[O-])CC2)C(=O)NC[C@H]2CC[C@H](C(=O)N[C@@H](Cc3ccc4ccccc4c3)C(=O)NCCCC[C@H](NC(=O)N[C@@H](CCC(=O)O)C(=O)O)C(=O)O)CC2)cc1.[68Ga+3]", "note": "[^68Ga-HTK03086]", "values": [
      {"measurement": "change of tumor uptake from 1 h to 3 h post-injection", "setting": "[1]; PET/CT images", "result": "increases over time"},
      {"measurement": "excretion pathway", "setting": "[1]; PET/CT images", "result": "excreted mainly by the renal pathway"},
      {"measurement": "blood retention (qualitative)", "setting": "[1]; PET/CT images at 1 h and 3 h post-injection, comparison within the figure", "result": "significantly higher blood retention"},
      {"measurement": "Adrenal glands uptake", "setting": "[2]; 1 h post-injection", "result": "3.28 ± 0.54", "unit": "% ID/g"},
      {"measurement": "Blood uptake", "setting": "[2]; 1 h post-injection", "result": "12.1 ± 0.60", "unit": "% ID/g"},
      {"measurement": "Bone uptake", "setting": "[2]; 1 h post-injection", "result": "0.72 ± 0.19", "unit": "% ID/g"},
      {"measurement": "Brain uptake", "setting": "[2]; 1 h post-injection", "result": "0.15 ± 0.01", "unit": "% ID/g"},
      {"measurement": "Fat uptake", "setting": "[2]; 1 h post-injection", "result": "1.37 ± 0.17", "unit": "% ID/g"},
      {"measurement": "Heart uptake", "setting": "[2]; 1 h post-injection", "result": "2.76 ± 0.25", "unit": "% ID/g"},
      {"measurement": "Intestine uptake", "setting": "[2]; 1 h post-injection", "result": "0.91 ± 0.07", "unit": "% ID/g"},
      {"measurement": "Kidneys uptake", "setting": "[2]; 1 h post-injection", "result": "54.7 ± 4.84", "unit": "% ID/g"},
      {"measurement": "Lacrimal uptake", "setting": "[2]; 1 h post-injection", "result": "0.24 ± 0.05", "unit": "% ID/g"},
      {"measurement": "Liver uptake", "setting": "[2]; 1 h post-injection", "result": "1.77 ± 0.27", "unit": "% ID/g"},
      {"measurement": "Lungs uptake", "setting": "[2]; 1 h post-injection", "result": "5.43 ± 0.65", "unit": "% ID/g"},
      {"measurement": "Muscle uptake", "setting": "[2]; 1 h post-injection", "result": "0.94 ± 0.02", "unit": "% ID/g"},
      {"measurement": "Pancreas uptake", "setting": "[2]; 1 h post-injection", "result": "1.16 ± 0.11", "unit": "% ID/g"},
      {"measurement": "Salivary uptake", "setting": "[2]; 1 h post-injection", "result": "2.51 ± 0.18", "unit": "% ID/g"},
      {"measurement": "Seminal uptake", "setting": "[2]; 1 h post-injection", "result": "0.71 ± 0.10", "unit": "% ID/g"},
      {"measurement": "Spleen uptake", "setting": "[2]; 1 h post-injection", "result": "2.18 ± 0.51", "unit": "% ID/g"},
      {"measurement": "Stomach uptake", "setting": "[2]; 1 h post-injection", "result": "0.34 ± 0.04", "unit": "% ID/g"},
      {"measurement": "Tail uptake", "setting": "[2]; 1 h post-injection", "result": "3.39 ± 0.59", "unit": "% ID/g"},
      {"measurement": "Testes uptake", "setting": "[2]; 1 h post-injection", "result": "1.54 ± 0.18", "unit": "% ID/g"},
      {"measurement": "Thyroid uptake", "setting": "[2]; 1 h post-injection", "result": "2.24 ± 0.15", "unit": "% ID/g"},
      {"measurement": "Tumor uptake", "setting": "[2]; 1 h post-injection", "result": "17.8 ± 2.89", "unit": "% ID/g"},
      {"measurement": "Tumor:Blood ratio", "setting": "[2]; 1 h post-injection", "result": "1.47 ± 0.28"},
      {"measurement": "Tumor:Muscle ratio", "setting": "[2]; 1 h post-injection", "result": "18.8 ± 2.968"},
      {"measurement": "Tumor:kidney ratio", "setting": "[2]; 1 h post-injection", "result": "0.32 ± 0.04"},
      {"measurement": "Urine uptake", "setting": "[2]; 1 h post-injection", "result": "82.9 ± 62.5", "unit": "% ID/g"},
      {"measurement": "Adrenal glands uptake", "setting": "[2]; 3 h post-injection", "result": "1.80 ± 0.39", "unit": "% ID/g"},
      {"measurement": "Blood uptake", "setting": "[2]; 3 h post-injection", "result": "6.60 ± 0.84", "unit": "% ID/g"},
      {"measurement": "Bone uptake", "setting": "[2]; 3 h post-injection", "result": "0.33 ± 0.16", "unit": "% ID/g"},
      {"measurement": "Brain uptake", "setting": "[2]; 3 h post-injection", "result": "0.09 ± 0.02", "unit": "% ID/g"},
      {"measurement": "Fat uptake", "setting": "[2]; 3 h post-injection", "result": "0.95 ± 0.12", "unit": "% ID/g"},
      {"measurement": "Heart uptake", "setting": "[2]; 3 h post-injection", "result": "1.53 ± 0.21", "unit": "% ID/g"},
      {"measurement": "Intestine uptake", "setting": "[2]; 3 h post-injection", "result": "0.71 ± 0.07", "unit": "% ID/g"},
      {"measurement": "Kidneys uptake", "setting": "[2]; 3 h post-injection", "result": "48.5 ± 10.7", "unit": "% ID/g"},
      {"measurement": "Lacrimal uptake", "setting": "[2]; 3 h post-injection", "result": "0.07 ± 0.04", "unit": "% ID/g"},
      {"measurement": "Liver uptake", "setting": "[2]; 3 h post-injection", "result": "1.40 ± 0.35", "unit": "% ID/g"},
      {"measurement": "Lungs uptake", "setting": "[2]; 3 h post-injection", "result": "3.49 ± 0.64", "unit": "% ID/g"},
      {"measurement": "Muscle uptake", "setting": "[2]; 3 h post-injection", "result": "0.57 ± 0.09", "unit": "% ID/g"},
      {"measurement": "Pancreas uptake", "setting": "[2]; 3 h post-injection", "result": "0.70 ± 0.11", "unit": "% ID/g"},
      {"measurement": "Salivary uptake", "setting": "[2]; 3 h post-injection", "result": "1.39 ± 0.13", "unit": "% ID/g"},
      {"measurement": "Seminal uptake", "setting": "[2]; 3 h post-injection", "result": "0.47 ± 0.09", "unit": "% ID/g"},
      {"measurement": "Spleen uptake", "setting": "[2]; 3 h post-injection", "result": "1.58 ± 0.37", "unit": "% ID/g"},
      {"measurement": "Stomach uptake", "setting": "[2]; 3 h post-injection", "result": "0.27 ± 0.08", "unit": "% ID/g"},
      {"measurement": "Tail uptake", "setting": "[2]; 3 h post-injection", "result": "1.50 ± 0.17", "unit": "% ID/g"},
      {"measurement": "Testes uptake", "setting": "[2]; 3 h post-injection", "result": "1.30 ± 0.30", "unit": "% ID/g"},
      {"measurement": "Thyroid uptake", "setting": "[2]; 3 h post-injection", "result": "1.39 ± 0.16", "unit": "% ID/g"},
      {"measurement": "Tumor uptake", "setting": "[2]; 3 h post-injection", "result": "28.2 ± 5.44", "unit": "% ID/g"},
      {"measurement": "Tumor:Blood ratio", "setting": "[2]; 3 h post-injection", "result": "4.33 ± 1.06"},
      {"measurement": "Tumor:Muscle ratio", "setting": "[2]; 3 h post-injection", "result": "50.5 ± 13.5"},
      {"measurement": "Tumor:kidney ratio", "setting": "[2]; 3 h post-injection", "result": "0.59 ± 0.10"},
      {"measurement": "Urine uptake", "setting": "[2]; 3 h post-injection", "result": "1.30 ± 47.9", "unit": "% ID/g"}
    ]}
  ]
}
